The text below walks through data of patent US8377470B2, “Non-gelatin soft capsule system” (R.P. Scherer Technologies, LLC, priority 2004, dated 2013).

Series [1] in a line: Film stability with concentrated salt formulations, gelatin film. Type of series: physicochemical. Conditions: concentrated suspension/solution in film depression, open exposure. Here is the method:
(§1) The films were formed and spread over a holding device such that small depressions could be formed in the surface of the film. A depression was formed and subsequently filled with the concentrated suspension of the salt formulation. Simultaneously, two acidic solutions were tested by the same protocol. […] This is well-known in the art to be an extremely aggressive mode of stability testing, resulting in acceleration in the interaction between shell and fill of over 260 times normal rates.

A short description of series [2]: Film stability with concentrated salt formulations, starch/gelling carrageenan film. In kind it is physicochemical. The conditions noted are these: concentrated suspension/solution in film depression, open exposure. Here is the method: as §1
For series [3] the following is noted: sodium or potassium hydroxide required to solubilize acetaminophen at greater than about 27% by weight; cited from earlier work.

Structures are written as SMILES.

Consider `O=P([O-])([O-])O.[K+].[K+]` [Potassium PO4-(dibasic)], for which the “Test Result After 24 Hours at 40° C.-75% RH, Gelatin film” value in series [1] is “Fail”. The “Test Result After 24 Hours at 40° C.-75% RH, Starch/Gelling Carrageenan film” value in series [2] was “Pass”.

For the molecule `CC(=O)[O-].[K+]` [Potassium acetate], in series [1], the “Test Result After 24 Hours at 40° C.-75% RH, Gelatin film” value is reported as “Fail”. The “Test Result After 24 Hours at 40° C.-75% RH, Starch/Gelling Carrageenan film” value in series [2] is “Pass”.

Consider `CC(=O)Nc1ccc(O)cc1` [acetaminophen, N-acetyl-p-aminophenol], for which the “pH of the PEG solution” value in series [3] is reported as “greater than 12”.

`O=C([O-])c1ccccc1C(=O)O.[K+]` [Potassium Hydrogen Phthalate]: the “Test Result After 24 Hours at 40° C.-75% RH, Gelatin film” value in series [1] was “Fail”. Moreover, in series [2], the “Test Result After 24 Hours at 40° C.-75% RH, Starch/Gelling Carrageenan film” value is “Pass”.

In the case of `O=C(O)C(O)C(O)C(=O)O` (centres unmarked) [Tartaric acid], the “Test Result After 24 Hours at 40° C.-75% RH, Gelatin film” value in series [1] was “Fail”. The “Test Result After 24 Hours at 40° C.-75% RH, Starch/Gelling Carrageenan film” value in series [2] was “Fail”.

For `O=C([O-])CC(O)(CC(=O)[O-])C(=O)[O-].[K+].[K+].[K+]` [Potassium citrate], in series [1], the “Test Result After 24 Hours at 40° C.-75% RH, Gelatin film” value is “Fail”. In addition, in series [2], the “Test Result After 24 Hours at 40° C.-75% RH, Starch/Gelling Carrageenan film” value is “Pass”.

On to `CC(=O)O.N` [Ammonium acetate], for which the “Test Result After 24 Hours at 40° C.-75% RH, Gelatin film” value in series [1] is “Fail”. Further, the “Test Result After 24 Hours at 40° C.-75% RH, Starch/Gelling Carrageenan film” value in series [2] is given as “Pass”.

`O=C(O)CC(O)(CC(=O)O)C(=O)O` [Citric acid]: in series [1], the “Test Result After 24 Hours at 40° C.-75% RH, Gelatin film” value is given as “Fail”. For the same molecule, the “Test Result After 24 Hours at 40° C.-75% RH, Starch/Gelling Carrageenan film” value in series [2] is “Fail”.

For the molecule `O=P([O-])([O-])[O-].[Na+].[Na+].[Na+]` [Sodium PO4-(tribasic)], the “Test Result After 24 Hours at 40° C.-75% RH, Gelatin film” value in series [1] is given as “Fail”. The “Test Result After 24 Hours at 40° C.-75% RH, Starch/Gelling Carrageenan film” value in series [2] is listed as “Pass”.
